Laboratory results published in PubChem BioAssay (NCI).
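These data come from cells grown in 96-well plates and exposed to compound for 48 hours at five concentrations. At the TGI there is no net growth.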

How the values were obtained:
Assay in all cases: inhibition of tumour cell growth, NCI panel, 48 h
[1] = test system: TK-10 renal
[2] = test system: IGROV1 ovarian
[3] = test system: MOLT-4 leukemia
[4] = test system: EKVX NSCLC
[5] = test system: OVCAR-8 ovarian
[6] = test system: CCRF-CEM leukemia
[7] = test system: A549 NSCLC
[8] = test system: HCT-15 colon
[9] = test system: MDA-MB-435
[10] = test system: SW-620 colon
[11] = test system: HOP-62 NSCLC
[12] = test system: COLO 205 colon
[13] = test system: HCT-116 colon
[14] = test system: PC-3 prostate
[15] = test system: SK-MEL-28 melanoma
[16] = test system: UO-31 renal
[17] = test system: KM12 colon
[18] = test system: HT29 colon
[19] = test system: NCI/ADR-RES ovarian
[20] = test system: NCI-H23 lung
[21] = test system: SK-MEL-2 melanoma
[22] = test system: U251 CNS
[23] = test system: RXF 393 renal
[24] = test system: A498 renal
[25] = test system: T-47D breast
[26] = test system: M14 melanoma
[27] = test system: SNB-19 CNS
[28] = test system: SK-OV-3 ovarian
[29] = test system: NCI-H460 lung
[30] = test system: SF-295 CNS
[31] = test system: SR leukemia
[32] = test system: MCF7 breast
[33] = test system: NCI-H226 lung
[34] = test system: OVCAR-5 ovarian
[35] = test system: HCC-2998 colon
[36] = test system: SF-539 CNS
[37] = test system: MDA-MB-231 breast
[38] = test system: UACC-62 melanoma
[39] = test system: HL-60(TB) leukemia
[40] = test system: SNB-75 CNS
[41] = test system: HS 578T breast
[42] = test system: NCI-H522 lung
[43] = test system: UACC-257 melanoma
[44] = test system: ACHN renal
[45] = test system: DU-145 prostate
[46] = test system: BT-549 breast
[47] = test system: OVCAR-4 ovarian
[48] = test system: CAKI-1 renal
[49] = test system: SK-MEL-5 melanoma
[50] = test system: SN12C renal
[51] = test system: MDA-N
[52] = test system: LOX IMVI melanoma
[53] = test system: HOP-92 NSCLC
[54] = test system: 786-0 renal
[55] = test system: SF-268 CNS
[56] = test system: OVCAR-3 ovarian
[57] = test system: RPMI-8226 leukemia
[58] = test system: K-562 leukemia
[59] = test system: MALME-3M melanoma

Structure (SMILES): O=[N+]([O-])c1cccc(-c2csc(N=Nc3c(O)[nH]c4ccccc34)n2)c1
- TGI [1]: 33.9 µM
- TGI [2]: 54.6 µM
- TGI [3]: 69.6 µM
- TGI [4]: 61.8 µM
- TGI [5]: 30 µM
- TGI [6]: 56.5 µM
- TGI [7]: 44 µM
- TGI [8]: 54.4 µM
- TGI [9]: > 100 µM
- TGI [10]: > 100 µM
- TGI [11]: 59.6 µM
- TGI [12]: > 100 µM
- TGI [13]: 33.2 µM
- TGI [14]: 99.4 µM
- TGI [15]: 36.1 µM
- TGI [16]: > 100 µM
- TGI [17]: > 100 µM
- TGI [18]: 44.5 µM
- TGI [19]: 29.6 µM
- TGI [20]: > 100 µM
- TGI [21]: > 100 µM
- TGI [22]: 40.4 µM
- TGI [23]: 77.9 µM
- TGI [24]: 80.1 µM
- TGI [25]: 82.4 µM
- TGI [26]: > 100 µM
- TGI [27]: 82.2 µM
- TGI [28]: > 100 µM
- TGI [29]: 31.8 µM
- TGI [30]: 44.4 µM
- TGI [31]: 96.9 µM
- TGI [32]: > 100 µM
- TGI [33]: 47.6 µM
- TGI [34]: > 100 µM
- TGI [35]: 32 µM
- TGI [36]: 68 µM
- TGI [37]: 39.5 µM
- TGI [38]: > 100 µM
- TGI [39]: 50.2 µM
- TGI [40]: 56.1 µM
- TGI [41]: 45.7 µM
- TGI [42]: 36.6 µM
- TGI [43]: 41.3 µM
- TGI [44]: > 100 µM
- TGI [45]: 65.9 µM
- TGI [46]: > 100 µM
- TGI [47]: 61.7 µM
- TGI [48]: 47 µM
- TGI [49]: 49.9 µM
- TGI [50]: 49.7 µM
- TGI [51]: > 100 µM
- TGI [52]: 42.5 µM
- TGI [53]: 46.5 µM
- TGI [54]: 29.8 µM
- TGI [55]: 38.4 µM
- TGI [56]: > 100 µM

Structure (SMILES): CC(C)(CO)CNc1cc(=O)[nH]c(N)n1
- TGI [2]: > 100 µM
- TGI [3]: > 100 µM
- TGI [4]: > 100 µM
- TGI [5]: > 100 µM
- TGI [6]: > 100 µM
- TGI [7]: > 100 µM
- TGI [8]: > 100 µM
- TGI [9]: > 100 µM
- TGI [10]: > 100 µM
- TGI [11]: > 100 µM
- TGI [12]: > 100 µM
- TGI [13]: > 100 µM
- TGI [14]: > 100 µM
- TGI [15]: > 100 µM
- TGI [16]: > 100 µM
- TGI [17]: > 100 µM
- TGI [18]: > 100 µM
- TGI [19]: > 100 µM
- TGI [20]: > 100 µM
- TGI [21]: > 100 µM
- TGI [22]: > 100 µM
- TGI [23]: > 100 µM
- TGI [24]: > 100 µM
- TGI [25]: > 100 µM
- TGI [26]: > 100 µM
- TGI [57]: > 100 µM
- TGI [27]: > 100 µM
- TGI [28]: > 100 µM
- TGI [58]: > 100 µM
- TGI [29]: > 100 µM
- TGI [30]: > 100 µM
- TGI [31]: > 100 µM
- TGI [32]: > 100 µM
- TGI [33]: > 100 µM
- TGI [34]: > 100 µM
- TGI [35]: > 100 µM
- TGI [37]: > 100 µM
- TGI [38]: > 100 µM
- TGI [39]: > 100 µM
- TGI [40]: > 100 µM
- TGI [41]: > 100 µM
- TGI [42]: > 100 µM
- TGI [43]: > 100 µM
- TGI [44]: > 100 µM
- TGI [45]: > 100 µM
- TGI [46]: > 100 µM
- TGI [47]: > 100 µM
- TGI [59]: > 100 µM
- TGI [48]: > 100 µM
- TGI [49]: > 100 µM
- TGI [50]: > 100 µM
- TGI [51]: > 100 µM
- TGI [52]: > 100 µM
- TGI [53]: > 100 µM
- TGI [54]: > 100 µM
- TGI [55]: > 100 µM
- TGI [56]: > 100 µM
